The supplement of paper PMC10307832

Columns and labels:
Test in all cases: relative viability (nuclei count vs DMSO), 5 days (fraction); higher = more cells survive
Dovitinib = compound: CN1CCN(c2ccc3nc(-c4c(N)c5c(F)cccc5[nH]c4=O)[nH]c3c2)CC1 [Dovitinib]
In short: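 After an overnight hold at 37 °C, lung cancer cell lines in 1536-well plates were pinned with five library-drug doses (not always all listed), each √10 from the next, on vehicle-anchored plates. The cells stayed 5 days without fresh medium, then a one-step fix, permeabilisation and Hoechst stain preceded 4× imaging and MetaXpress nuclear counts. A plate passed only with control CV under 25% and at least one doubling. Viability is the median, over plates, of treated-well nuclei relative to vehicle-well nuclei.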

Dovitinib + Palbociclib = compound: CN1CCN(c2ccc3nc(-c4c(N)c5c(F)cccc5[nH]c4=O)[nH]c3c2)CC1 [Dovitinib] + CC(=O)c1c(C)c2cnc(Nc3ccc(N4CCNCC4)cn3)nc2n(C2CCCC2)c1=O [Palbociclib] (partner 0.5 µM)
In short: (§1)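 After 5 days of treatment, lung cancer cells in 1536-well plates were fixed and stained in a single step (final 0.05% Triton X-100, 1% formaldehyde, 1 ug/ml Hoechst) and their nuclei counted on 4× images. Treatment had been applied by pin tool the day after seeding as one drug alone or as a fixed anchor-drug dose with five library-drug doses (not always all listed) in √10 steps. Relative viability is the nuclei count of treated wells divided by that of vehicle wells, and values are medians of duplicate plates.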

Dovitinib + Foretinib = compound: CN1CCN(c2ccc3nc(-c4c(N)c5c(F)cccc5[nH]c4=O)[nH]c3c2)CC1 [Dovitinib] + COc1cc2c(Oc3ccc(NC(=O)C4(C(=O)Nc5ccc(F)cc5)CC4)cc3F)ccnc2cc1OCCCN1CCOCC1 [Foretinib] (partner 0.25 µM)
In short: as §1

Dovitinib + OSI-027 = compound: CN1CCN(c2ccc3nc(-c4c(N)c5c(F)cccc5[nH]c4=O)[nH]c3c2)CC1 [Dovitinib] + COc1cccc2cc(-c3nc([C@H]4CC[C@H](C(=O)O)CC4)n4ncnc(N)c34)[nH]c12 [OSI-027] (partner 0.5 µM)
In short: as §1

Cell Line	relative viability (Dovitinib; 0.02 µM)	relative viability (Dovitinib; 0.06325 µM)	relative viability (Dovitinib; 0.2 µM)	relative viability (Dovitinib; 0.6325 µM)	relative viability (Dovitinib; 2 µM)	relative viability (Dovitinib + Palbociclib; first compound 0.02 µM)	relative viability (Dovitinib + Palbociclib; first compound 0.06325 µM)	relative viability (Dovitinib + Palbociclib; first compound 0.2 µM)	relative viability (Dovitinib + Palbociclib; first compound 0.6325 µM)	relative viability (Dovitinib + Palbociclib; first compound 2 µM)	relative viability (Dovitinib + Foretinib; first compound 0.02 µM)	relative viability (Dovitinib + Foretinib; first compound 0.06325 µM)	relative viability (Dovitinib + Foretinib; first compound 0.2 µM)	relative viability (Dovitinib + Foretinib; first compound 0.6325 µM)	relative viability (Dovitinib + Foretinib; first compound 2 µM)	relative viability (Dovitinib + OSI-027; first compound 0.02 µM)	relative viability (Dovitinib + OSI-027; first compound 0.06325 µM)	relative viability (Dovitinib + OSI-027; first compound 0.2 µM)	relative viability (Dovitinib + OSI-027; first compound 0.6325 µM)	relative viability (Dovitinib + OSI-027; first compound 2 µM)
NCI-H1651	0.986	0.999	1.03	1.06	0.963	0.538	0.532	0.526	0.53	0.549	0.899	0.792	0.836	0.796	0.721	0.733	0.723	0.765	0.77	0.688
NCI-H1666	1.2	1.09	1.09	1.01	1.01	0.698	0.657	0.677	0.625	0.669	1.02	0.975	0.961	0.99	0.961	0.931	0.882	0.838	0.875	0.909
NCI-H1734	0.928	0.974	0.934	0.963	0.984	0.371	0.387	0.355	0.338	0.416	0.9	0.813	0.834	0.735	0.834	0.655	0.632	0.687	0.575	0.55
NCI-H1755	1.04	1.02	1.01	0.998	1.02	0.47	0.427	0.479	0.463	0.471	0.935	0.895	1.03	0.92	0.969	0.744	0.732	0.759	0.714	0.712
NCI-H1793	1.07	0.977	1.02	1.09	1.01	0.365	0.297	0.311	0.299	0.311	0.775	0.532	0.684	0.604	0.745	0.304	0.269	0.313	0.332	0.302
NCI-H1915	0.937	0.975	1	1.01	0.981	0.512	0.533	0.537	0.488	0.553	1.07	1.08	1.1	1.07	1.06	0.559	0.635	0.621	0.602	0.647
NCI-H1944	0.94	0.94	1.08	1.02	1.01	0.305	0.356	0.323	0.346	0.308	0.833	0.906	0.864	0.903	0.86	0.426	0.383	0.398	0.39	0.431
NCI-H1975	0.916	0.966	1.03	0.976	0.947	0.657	0.674	0.58	0.645	0.598	1.01	0.962	0.927	0.989	0.975	0.749	0.735	0.732	0.664	0.666
NCI-H1993	1.21	0.863	1	0.988	1.07	0.856	0.721	0.639	0.547	0.66	0.759	0.714	0.742	0.771	0.771	0.599	0.545	0.597	0.505	0.573
NCI-H2009	0.881	1.01	1.02	1.03	1.12	0.203	0.202	0.291	0.353	0.244	1.16	1.25	1.22	1.15	1.27	0.546	0.621	0.642	0.638	0.611
NCI-H2023	0.94	0.969	1.11	1	0.926	0.357	0.359	0.388	0.345	0.359	0.707	0.935	0.788	0.868	0.857	0.429	0.404	0.476	0.394	0.362
NCI-H2085	1	1.01	1.03	1.02	0.985	0.481	0.476	0.477	0.415	0.493	1.01	1.16	1.01	0.961	1.01	0.672	0.71	0.734	0.829	0.839
NCI-H2087	0.981	0.982	1.05	1.18	1.05	0.276	0.229	0.191	0.197	0.255	1.19	1.15	1.14	1.05	1.16	0.57	0.487	0.757	0.484	0.554
NCI-H2126	1.01	0.966	1.01	0.983	1.05	0.363	0.357	0.354	0.339	0.327	1.17		1.3	1.14	1.15	0.74		0.855	0.699	0.638
NCI-H2170	0.868	1.01	1.04	0.982	0.946	0.419	0.448	0.399	0.39	0.407	0.992	0.986	1.02	0.983	0.974	0.572	0.711	0.718	0.708	0.723
NCI-H2228	0.832	1.17	1.16	0.966	0.962	0.763	0.815	0.696	0.79	0.678	0.9	0.832	0.928	1.08	0.915	0.638	0.533	0.512	0.681	0.635
